The values below come from US12383556B2, “Methods of treating Sjögren's syndrome using a Bruton's tyrosine kinase inhibitor” (NOVARTIS AG, priority 2019, dated 2025).

Data set [1] concerns the target T1, BTK (Rattus norvegicus, UniProt Q5S255).
T1 construct: total BTK relative protein levels were determined in lysates of selected tissues; from tissue; host or cells: rat spleen, blood, lymph nodes, lung (lysates)
In words: BTK occupancy ex vivo immunoassay (biotinylated BTK probe) in tissues after oral dosing. On the procedure: (§1) The in vivo PD effects of an irreversible BTK inhibitor like compound (I) are determined by the extent and duration of covalent BTK occupancy by the inhibitor. BTK occupancy after treatment with Compound of Formula (I) (also referenced to as Compound (I)) was measured in an ex vivo immunoassay. The fraction of unoccupied BTK protein was assayed after in vitro incubation with a covalent biotinylated BTK probe, since compound (I) and the probe bind to BTK in a mutually exclusive manner. Unoccupied BTK, as well as total BTK relative protein levels were determined in lysates of selected tissues and levels of unoccupied BTK were normalized to total BTK protein levels in the same samples.
(§2) From the experimental data it was apparent that a short transient systemic exposure of compound (I) is sufficient to achieve full BTK occupancy in several tissues at low oral doses of 1-3 mg/kg. […] This very low and transient systemic exposure is consistent with the PK/PD model typical of irreversible inhibitors.
(§3) The duration of BTK occupancy was determined in rats and mice after single oral dose of compound (I) for spleen, blood, lymph nodes and lung. […] The longer persistence of BTK occupancy in blood has been reported before (Advani et al 2013, J Clin Onc; 31(1):88-94).

Data set [2] has as its system BTK. Described as above. The arrangement: species or system rat. The following applies: spleen of rodents. On the procedure: as §1, §2, §3
Data set [3] in a line: First-in-human Part 1 single ascending dose blood PK. The class given is in vivo. On the procedure:
A first-in-human study was conducted to assess the safety and tolerability, pharmacokinetics (PK) and pharmacodynamics (PD) of single and multiple doses of compound (I) both as once daily (qd) and twice daily (bid) oral administration in healthy volunteers and those with atopic diathesis, to support further clinical development of compound (I) in autoimmune diseases. This study also explored the effect of food intake.
First-in-human study in up to approximately 168 healthy volunteers (HVs), of which 64 (in Parts 2 & 4) had asymptomatic atopic diathesis. • Part 1 was a double-blind (subject and investigator blind, sponsor unblinded), placebo-controlled single ascending dose (SAD) escalation study of 10 cohorts (N=80) • Part 2 was a double-blind (subject and investigator blind, sponsor unblinded), placebo-controlled multiple ascending dose (MAD) (13 doses over 12 days) escalation study employing once daily dosing in 6 cohorts in healthy volunteers with asymptomatic atopic diathesis (N=48) • Part 3 was a single dose open-label crossover food effect study in 12 HVs • Part 4 was a double-blind (subject and investigator blind, sponsor unblinded), placebo-controlled multiple dose (25 doses over 12 days) study employing twice daily dosing in 2 cohorts of healthy volunteers with asymptomatic atopic diathesis (N=16)
In Part 1, subjects were admitted to the study site on Day −2 or −1 for baseline safety assessments and to confirm eligibility. Eligible subjects received a single dose of compound (I) or placebo under fasting conditions on Day 1. They were domiciled from Day −1 to the morning of Day 5 (96 hours post last drug administration).
Subjects were assigned to one of the following 10 cohorts. In each cohort, 8 subjects were randomized to either compound (I) or matching placebo in an overall 6:2 ratio. The first sub-cohort was randomized in a 1:1 ratio as one subject on compound (I) and one on matching placebo. The remaining 6 subjects per cohort, dosed after a 48-hour observation period of the initially dosed 2 subjects, were randomized in a 5:1 ratio. • Cohort 1: single oral dose of 0.5 mg compound (I) or matching placebo • Cohort 2: single oral dose of 1.5 mg compound (I) or matching placebo • Cohort 3: single oral dose of 5 mg compound (I) or matching placebo • Cohort 4: single oral dose of 15 mg compound (I) or matching placebo • Cohort 5: single oral dose of 30 mg compound (I) or matching placebo • Cohort 6: single oral dose of 60 mg compound (I) or matching placebo • Cohort 7: single oral dose of 100 mg compound (I) or matching placebo • Cohort 8: single oral dose of 200 mg compound (I) or matching placebo • Cohort 9: single oral dose of 400 mg compound (I) or matching placebo • Cohort 10: single oral dose of 600 mg compound (I) or matching placebo
Pharmacokinetic samples were obtained in blood and evaluated in all subjects at all dose levels. The samples from placebo subjects were not analyzed. The samples for PK assessments from subjects were collected at time points defined in the study. Compound (I) concentrations were determined in blood by a validated LC-MS/MS method.

Data set [4] can be described thus: Safety and tolerability in healthy volunteers (first-in-human study). The following applies: for overall safety assessment: dosing up to 600 mg (200 mg twice daily). The class given is in vivo. On the procedure: Standard safety monitoring was used throughout all study parts. A dedicated assessment of potential skin bruising events were included. All vital signs, physical examination and subject history, ECGs, adverse events, and laboratory safety parameters (blood chemistry, hematology and urinalysis) up to 96 hours post last dose as well as PK data from the previous dose group (if available) up to 48 hours post last dose were to be reviewed in a blinded fashion for each cohort before dose escalation. Summary safety reports of reported adverse events, clinical safety laboratory parameters, QTc and heart rate were provided after completion of each dose level.
For the analysis of adverse effects, the Placebo subjects from all SAD and MAD cohorts (2 per cohort) and separated by the SAD and MAD parts were pooled into one Placebo group (n=20 for SAD and n=16 for MAD) to be compared with each single compound (I) dose group (n=6 each) and the total compound (I) group (n=60 for SAD and n=48 for MAD). There were no apparent major differences in the demographic data between placebo and the active groups both for the SAD and MAD populations.

Where two headings read alike, the source gives them in different places.

T1 sequence (Q5S255 1-660): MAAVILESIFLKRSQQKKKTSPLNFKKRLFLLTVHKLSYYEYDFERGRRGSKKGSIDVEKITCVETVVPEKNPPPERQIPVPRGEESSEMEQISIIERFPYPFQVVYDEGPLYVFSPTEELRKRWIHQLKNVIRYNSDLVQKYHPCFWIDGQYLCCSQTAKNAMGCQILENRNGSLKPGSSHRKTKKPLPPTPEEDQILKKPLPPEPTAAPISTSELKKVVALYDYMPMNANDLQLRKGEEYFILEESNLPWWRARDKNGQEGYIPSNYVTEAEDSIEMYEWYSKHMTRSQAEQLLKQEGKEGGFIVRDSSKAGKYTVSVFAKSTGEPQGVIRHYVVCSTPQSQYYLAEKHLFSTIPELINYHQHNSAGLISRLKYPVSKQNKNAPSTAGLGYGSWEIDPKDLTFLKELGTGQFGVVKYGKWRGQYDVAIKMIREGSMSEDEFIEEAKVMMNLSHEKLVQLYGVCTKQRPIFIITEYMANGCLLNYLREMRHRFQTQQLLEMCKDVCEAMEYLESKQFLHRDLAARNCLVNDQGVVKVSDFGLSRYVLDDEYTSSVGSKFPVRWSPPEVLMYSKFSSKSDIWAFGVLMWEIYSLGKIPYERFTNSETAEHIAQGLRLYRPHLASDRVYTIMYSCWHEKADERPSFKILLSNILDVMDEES

As a reminder, the MRT is a mean duration of stay, worked out from the concentration-time curve. Regarding `C=CC(=O)N(C)CCOc1c(N)ncnc1-c1cc(F)cc(NC(=O)c2ccc(C3CC3)cc2F)c1C` [Compound of Formula (I), N-(3-(6-Amino-5-(2-(N-methylacrylamido)ethoxy)pyrimidin-4-yl)-5-fluoro-2-methylphenyl)-4-cyclopropyl-2-fluorobenzamide], on BTK [1] (female rats, single oral dose), the “BTK occupancy in blood” value is “consistent with those observed in spleen”. Moreover, the “spleen BTK occupancy” value on BTK [1] (female rats, single oral dose 3 mg/kg) is reported as “full”. Also, the receptor occupancy at 0.3 mg/kg at BTK [1] (rat, female rats, single oral dose 0.3 mg/kg, read-out: spleen BTK occupancy) turned out to be 30%. The receptor occupancy at 1 mg/kg at BTK [1] (rat, female rats, single oral dose 1 mg/kg, read-out: spleen BTK occupancy) fell in the range of 76 to 81%. Further, on BTK [1] (rats, single oral dose), the “BTK occupancy half-life in blood” value is recorded as “approximately 87 hours”. In addition, the “BTK occupancy half-life in spleen” value on BTK [1] (rats, single oral dose) was “approximately 5 hours”. Moreover, the “BTK turnover in tissue (spleen)” value in the data set with BTK [2] is “approximately 5 hours”. Also, the half-life in data set [3] (human, blood, oral, single ascending doses, dose-independent, read-out: distribution phase T1/2 (converted)) was approximately 1 h; in data set [3] (human, blood, oral, single dose 100 mg, read-out: terminal half-life (converted)), 4 h; in data set [3] (human, blood, oral, single dose 600 mg, read-out: terminal half-life (converted)), 18 h. In addition, the MRT in data set [3] (human, blood, oral, single ascending doses, read-out: mean residence time (MRT) in the circulation) lay within 1 to 5 h. In addition, the “oral blood clearance CL/F, estimate across all cohorts” value in data set [3] (single dose) was “about 383 L/h”. Moreover, in data set [4] (0.5 mg to 600 mg, healthy volunteers), the “serious or severe adverse events related to intake” value is “no serious or severe adverse event”. The tolerability entry in data set [4] (0.5 mg to 600 mg, single dose or up to 18 days once or twice daily) is “well tolerated”. For the same compound, the figures for the overall safety assessment entry in data set [4] and in data set [4] (listed as compound (I)) were “proven to be safe” and “does not reveal significant safety concerns”, respectively. Besides, the “nature of observed adverse events” value in data set [4] (healthy volunteers) is reported as “generally mild in nature”.
